In US10752589B2, “Trigonelline based compounds” (SPHAERA PHARMA PVT. LTD., priority 2016, dated 2020):
In brackets after ≈: the same amount, converted by molar mass. Entries after “also recorded” stand apart in the source; their conditions may differ. Read-outs that look alike come from different tables or passages of the source. Blank lines part the entries; values can stand above or below the molecule they belong to.

Assays:
[1] = Pharmacokinetics in SD rats, IV dosing (Paclitaxel and 1001)
Description: Pharmacokinetics studies were carried out to evaluate the plasma exposure of modified drug of Paclitaxel in SD rats when dosed intravenously (IV). The results were compared with exposure of Paclitaxel using the same dosing vehicle. The dosing vehicle that was used in this study was PEG400 and Normal saline in fixed composition. […] 3 mpk and 1 mpk IV dosing was done for the modified drug and 3 mpk IV for Paclitaxel parent drug. After IV dosing of the modified drug blood was collected by serial bleeding at different time points in heparinized tubes. Blood samples were centrifuged at 10,000 rpm for 5 min at 4° C. to obtain the plasma, which were aspirated into separate labeled tubes and stored at −80° C. Extraction solvent was added to plasma, was vortexed and shaken on shaker for 10 minutes, centrifuged at 10,000 rpm for 10 minutes at 4° C. Supernatant was kept for analysis.
Acetonitrile and plasma calibration curves were generated and percentage of drug recovery from plasma determined Quantitative analysis was done by liquid chromatography tandem mass spectrometer (API3000 LC-MS/MS).

[2] = Solubility of Paclitaxel modified drug in saline solvent systems by HPLC; details: for Fold increase in solubility: versus Paclitaxel; for Solubility compared with parent drug: aqueous solubility; for solubility: thermodynamic from solid
Description: Solubility was checked in different solvent systems.
Area under the curve for each were determined and based on that fold increase in solubility was determined.

[3] = Stability and solubility in dosing vehicle PEG400 and Normal saline; format: physicochemical; details: PEG400 and Normal saline in fixed composition
[4] = Solubility in miliQ water by HPLC (area under the curve); format: physicochemical
Description: 1 mg/ml and 2 mg/ml solution of Mefloquine and Tadlafil respectively and equivalent weight of respective trigonelline modified compound (1011), compound (1005) of the present invention was taken in miliQ water, vortexed, centrifuged for 3 min, filtered and loaded on HPLC column (Zorbax Eclipse C18; Mobile Phase: A: 0.1% TFA, B: ACN; run time 15 min, Waters 2996 HPLC model).

[5] = Pharmacokinetics in SD rats, IV dosing (Docetaxel and 1008); format: in vivo; details: for AUC / Cmax / Tmax / half-life: Sprague-Dawley, rat, plasma, PEG400 and Normal saline; for half-life: read-out: T1/2 elimination (converted)
Source text: The results were compared with exposure of Docetaxel (10 mpk) using the same dosing vehicle.
Supernatant was kept for analysis.

[6] = 3 mg/Kg iv, PEG/Normal Saline (3 mpk 1001 = 2.1 mpk Paclitaxel delivered)
[7] = concentration used for HPLC analysis 2 mg/ml
[8] = concentration used for HPLC analysis 1 mg/ml

SMILES: CC(=O)O[C@H]1C(=O)C2(C)C([C@H](OC(=O)c3ccccc3)[C@]3(O)C[C@H](OC(=O)[C@H](OC(=O)c4ccc[n+](C)c4)[C@H](NC(=O)c4ccccc4)c4ccccc4)C(C)=C1C3(C)C)[C@]1(OC(C)=O)CO[C@@H]1C[C@@H]2O.[I-] (stereo partly drawn) [Compound 1001, 3-((((1R,2R)-1-benzamido-3-(((2aR,4S,6R,9S,11S,12S,12bS)-6,12b-diacetoxy-12-(benzoyloxy)-4,11-dihydroxy-4a,8,13,13-tetramethyl-5-oxo-2a,3,4,4a,5,6,9,10,11,12,12a,12b-dodecahydro-1H-7,11-methanocyclodeca[3,4]benzo[1,2-b]oxet-9-yl)oxy)-3-oxo-1-phenylpropan-2-yl)oxy)carbonyl)-1-methylpyridin-1-ium iodide]
Cmax ([1]; 1 mg/Kg iv, PEG/Normal Saline (1 mpk 1001 = 0.71 mpk Paclitaxel delivered)): 2384 nm
Cmax [1, 6]: 8620 nm
Fold increase in the AUC ([1]; iv, versus Paclitaxel): more than 10 fold
Fold increase in the Cmax ([1]; iv, versus Paclitaxel): more than 80 folds
Fold increase in solubility ([2]; Normal Saline with 5% Dimethylacetamide): > 10,000 ×
Fold increase in solubility ([2]; Normal Saline with 5% Dimethylsulfoxide): > 12,000 ×
Fold increase in solubility ([2]; Normal Saline with 9% N-Methylpyrrolidone): > 15,000 ×
Fold increase in solubility ([2]; Normal Saline): > 5000 ×
Solubility compared with parent drug [2]: increased solubility; also recorded: better aqueous solubility
solubility ([2]; aqueous with cosolvent or surfactant or cyclodextrin, Solubility in 5% DMA in normal saline, 5% DMA in normal saline): ~1000 µg/mL
solubility ([2]; aqueous with cosolvent or surfactant or cyclodextrin, Solubility in 5% DMSO in Normal saline, 5% DMSO in Normal saline): > 1200 µg/mL
solubility ([2]; aqueous with cosolvent or surfactant or cyclodextrin, Solubility in 9% NP in Normal Saline, 9% NP in Normal Saline): > 1500 µg/mL
solubility ([2]; saline or isotonic, Solubility in Normal saline, Normal saline): > 500 µg/mL
Stability in the selected solvents ([2]; selected solvent systems in normal saline): stable
Stability and solubility in the dosing vehicle [3]: stable and soluble

SMILES: CC(=O)O[C@@]12CO[C@@H]1C[C@H](O)[C@@]1(C)C(=O)[C@H](O)C3=C(C)[C@@H](OC(=O)[C@H](OC(=O)c4ccc[n+](C)c4)[C@@H](NC(=O)OC(C)(C)C)c4ccccc4)C[C@@](O)([C@@H](OC(=O)c4ccccc4)[C@H]21)C3(C)C.[I-] [Compound 1008, 3-((((2R,3S)-1-(((2aR,4S,4aS,6R,9S,11S,12S,12aR,12bS)-12b-acetoxy-12-(benzoyloxy)-4,6,11-trihydroxy-4a,8,13,13-tetramethyl-5-oxo-2a,3,4,4a,5,6,9,10,11,12,12a,12b-dodecahydro-1H-7,11-methanocyclodeca[3,4]benzo[1,2-b]oxet-9-yl)oxy)-3-((tert-butoxycarbonyl)amino)-1-oxo-3-phenylpropan-2-yl)oxy)carbonyl)-1-methylpyridin-1-ium iodide]
Exposure compared to the parent drug ([5]; IV, 1008 3 mpk versus Docetaxel 10 mpk): significantly higher exposure
Pharmacokinetics compared to the original compound ([5]; IV, versus Docetaxel): enhanced pharmacokinetics
AUC ([5]; 3 mg/kg, 3 mpk IV): 1.04 µM·h
Cmax ([5]; 3 mg/kg, 3 mpk IV): 6.92 µM
Tmax ([5]; 3 mg/kg, 3 mpk IV): 4.8 min
half-life ([5]; 3 mg/kg, 3 mpk IV): 107 min
Solubility compared with parent drug [2]: better aqueous solubility
Stability and solubility in the dosing vehicle [3]: stable and soluble

SMILES: C[n+]1cccc(C(=O)N2CCCC[C@@H]2[C@@H](O)c2cc(C(F)(F)F)nc3c(C(F)(F)F)cccc23)c1 [Compound 1011, 3-((R)-2((S)-(2,8-bis(trifluoromethyl)quinolin-4 yl)(hydroxy)methyl)piperidine-1-carbonyl)-1-methylpyridin-1-ium]
Aqueous solubility over parent drug [4]: significant increase
Fold increase in solubility for equiv. wt of DM using HPLC ([4]; 1 mg/ml, versus parent Mefloquine): 2.4 fold
solubility [4, 8]: Completely

SMILES: CC(=O)O[C@@]12CO[C@@H]1C[C@H](O)[C@@]1(C)C(=O)[C@H](O)C3=C(C)[C@@H](OC(=O)[C@H](O)[C@@H](NC(=O)OC(C)(C)C)c4ccccc4)C[C@@](O)([C@@H](OC(=O)c4ccccc4)[C@H]21)C3(C)C [Docetaxel, reference compound]
AUC ([5]; 10 mg/kg, 10 mpk IV): 0.897 µM·h
Cmax ([5]; 10 mg/kg, 10 mpk IV): 0.495 µM
Tmax ([5]; 10 mg/kg, 10 mpk IV): 4.8 min
half-life ([5]; 10 mg/kg, 10 mpk IV): 124 min

SMILES: CN1CC(=O)N2[C@H](c3ccc4c(c3)OCO4)c3[nH]c4ccccc4c3C[C@@H]2C1=O [Tadalafil, reference compound]
solubility [4, 7]: Very poor

Results, then the molecule that gave them:

Aqueous solubility over parent drug [4]: significant increase
Fold increase in solubility for equiv. wt of DM using HPLC ([4]; 2 mg/ml, versus parent Tadalafil): 80 fold
solubility [4, 7]: Completely
SMILES: CN1CC(=O)N2[C@H](c3ccc4c(c3)OCO4)c3c(c4ccccc4n3C(=O)c3ccc[n+](C)c3)C[C@@H]2C1=O [Compound 1005, 3-((6R,12aR)-6-(benzo[d][1,3]dioxol-5-yl)-2-methyl-1,4-dioxo-1,2,3,4,6,7,12,12a-octahydropyrazino[1′,2′:1,6]pyrido[3,4-b]indole-7-carbonyl)-1-methylpyridin-1-ium iodide]

solubility [4, 8]: Poor
SMILES: OC(c1cc(C(F)(F)F)nc2c(C(F)(F)F)cccc12)C1CCCCN1 (stereo not shown) [Mefloquine, reference compound]

Cmax [1, 6]: 104 nm
Solubility in 5% DMA in normal saline ([2]; 5% DMA in normal saline): Not soluble
Solubility in 5% DMSO in Normal saline ([2]; 5% DMSO in Normal saline): Not soluble
Solubility in 9% NP in Normal Saline ([2]; 9% NP in Normal Saline): Not soluble
solubility ([2]; normal saline, saline or isotonic, Solubility in Normal saline): 0.1 µg/mL (≈ 0.117 µM)
SMILES: CC(=O)O[C@H]1C(=O)[C@@]2(C)[C@H]([C@H](OC(=O)c3ccccc3)[C@]3(O)C[C@H](OC(=O)[C@H](O)[C@@H](NC(=O)c4ccccc4)c4ccccc4)C(C)=C1C3(C)C)[C@]1(OC(C)=O)CO[C@@H]1C[C@@H]2O [Paclitaxel, reference compound]
